Test results taken from patent US9708336B2, “Metallo-beta-lactamase inhibitors” (priority 2014, dated 2017).
Where two headings read alike, the source gives them in different places.

Columns and labels:
IMP-1 = IMP-1 (Serratia marcescens, UniProt P52699); assay: biochemical; assay type: biochemical
VIM-1 = VIM-1 (Pseudomonas aeruginosa (strain ATCC 15692 / DSM 22644 / CIP 104116 / JCM 14847 / LMG 12228 / 1C / PRS 101 / PAO1), UniProt A0A0F7KYQ8); assay: Enzyme activity: determination of IC50, fluorescence assay with CCF2-FA substrate (VIM-1); assay type: biochemical
[1] = system: Escherichia coli expressing NDM-1 (CLB30016); assay: Antibiotic potentiation activity: synergistic concentration (MITC95) with imipenem, OD600 growth; assay type: cell-based; conditions: for Escherichia coli expressing NDM-1 (CLB 30016) MITC95: concentration giving 95% inhibition of bacterial growth
Procedure, shortened: (§1)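 Test compound was combined with 4 μg/ml imipenem (or optionally 1 μg/ml), or with no antibiotic, against saline-suspended colonies diluted 1:100 in 1.1×CAMHB. Strains were E. coli NDM-1, S. marcescens IMP-1 and K. pneumoniae VIM-1. Plates were incubated 22–24 h at 35 °C before absorbance (OD600) readout.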

[2] = system: Klebsiella pneumoniae expressing VIM-1 (IHMA599644); assay: as above; assay type: cell-based; conditions: for Klebsiella pneumoniae expressing VIM-1 (IHMA 599644) MITC95: concentration giving 95% inhibition of bacterial growth
Procedure, shortened: as §1

[3] = system: Serratia marcescens expressing IMP-1 (CL5741); assay: as above; assay type: cell-based; conditions: for Serratia marcescens expressing IMP-1 (CL5741) MITC95: concentration giving 95% inhibition of bacterial growth
Procedure, shortened: as §1

NDM-1 = NDM-1 (Klebsiella pneumoniae, UniProt C7C422); assay: biochemical; assay type: biochemical
NDM-1, sequence (C7C422 whole entry, looked up, species assumed): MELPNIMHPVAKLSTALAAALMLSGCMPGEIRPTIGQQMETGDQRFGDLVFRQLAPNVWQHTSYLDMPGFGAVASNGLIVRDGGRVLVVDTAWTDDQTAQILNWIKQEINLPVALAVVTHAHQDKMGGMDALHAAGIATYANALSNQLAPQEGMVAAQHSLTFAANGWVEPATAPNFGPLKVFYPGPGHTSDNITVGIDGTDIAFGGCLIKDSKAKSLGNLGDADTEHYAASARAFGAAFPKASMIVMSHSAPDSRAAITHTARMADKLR

[4] = fluorescence assay with CCF2-FA substrate, read-out: IMP-1 IC50
[5] = VIM-1 IC50, fluorescence assay with CCF2-FA substrate
[6] = CLB30016 (NDM-1), 95% inhibition of bacterial growth
[7] = IHMA599644 (VIM-1), 95% inhibition of bacterial growth
[8] = CL5741 (IMP-1), 95% inhibition of bacterial growth
[9] = fluorescence assay with CCF2-FA substrate, read-out: NDM-1 IC50
[10] = fluorescence assay with CCF2-FA substrate, read-out: VIM-1 IC50
[11] = IMP-1 enzyme, CCF2-FA substrate, read-out: IMP-1 IC50
[12] = VIM-1 IC50, VIM-1 enzyme, CCF2-FA substrate
[13] = (CLB30016, NDM-1), 95% growth inhibition
[14] = Klebsiella pneumoniae IHMA599644 (VIM-1), 95% growth inhibition
[15] = Serratia marcescens CL5741 (IMP-1), 95% growth inhibition
[16] = NDM-1 enzyme, CCF2-FA substrate, read-out: NDM-1 IC50
[17] = VIM-1 enzyme, CCF2-FA substrate, read-out: VIM-1 IC50
[18] = IMP-1 enzyme, CCF2-FA fluorescence assay, read-out: IMP-1 IC50
[19] = VIM-1 enzyme, CCF2-FA fluorescence assay, read-out: VIM-1 IC50
[20] = Escherichia coli expressing NDM-1 (CLB30016), 95% growth inhibition
[21] = Klebsiella pneumoniae expressing VIM-1 (IHMA599644), 95% growth inhibition
[22] = Serratia marcescens expressing IMP-1 (CL5741), 95% growth inhibition
[23] = NDM-1 enzyme, CCF2-FA fluorescence assay, read-out: NDM-1 IC50

IMP-1, sequence (P52699 whole entry, looked up): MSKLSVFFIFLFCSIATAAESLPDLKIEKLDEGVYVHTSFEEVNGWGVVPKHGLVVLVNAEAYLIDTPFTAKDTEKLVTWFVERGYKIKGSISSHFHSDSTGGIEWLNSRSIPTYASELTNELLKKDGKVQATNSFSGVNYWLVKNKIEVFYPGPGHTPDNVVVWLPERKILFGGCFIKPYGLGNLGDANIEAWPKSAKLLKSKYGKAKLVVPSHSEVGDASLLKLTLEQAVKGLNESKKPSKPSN

NC1CCCC1N1CC(c2ccc(-c3ccc(C(F)(F)F)c(S(N)(=O)=O)c3-c3nnn[nH]3)cc2)C1 (stereo not drawn) [Example 811, 4′-[1-(2-aminocyclopentyl)azetidin-3-yl]-2-(1H-tetrazol-5-yl)-4-(trifluoromethyl)biphenyl-3-sulfonamide]
IC50 (IMP-1; [4]): 9.42 nM | IC50 (VIM-1; [5]): 27.9 nM | Escherichia coli MITC95 [1, 6]: 1.563 µM | Klebsiella pneumoniae MITC95 [2, 7]: 100 µM | Serratia marcescens MITC95 [3, 8]: 6.25 µM | IC50 (NDM-1; [9]): 4.78 nM

NS(=O)(=O)c1cccc(-c2cnc(NCCO)nc2)c1-c1nnn[nH]1 [Example 125, 3-(2-((2-hydroxyethyl)amino)pyrimidin-5-yl)-2-(1H-tetrazol-5-yl)benzenesulfonamide]
IC50 (IMP-1; [4]): 326 nM | IC50 (VIM-1; [5]): 172 nM | Escherichia coli expressing NDM-1 (CLB 30016) MITC95 [1]: 1.953 µM | Klebsiella pneumoniae expressing VIM-1 (IHMA 599644) MITC95 [2]: 25 µM | Serratia marcescens expressing IMP-1 (CL5741) MITC95 [3]: 9.375 µM | IC50 (NDM-1; [9]): 6.55 nM

NS(=O)(=O)c1cccc(-c2cnc3ccccc3c2)c1-c1nnn[nH]1 [Example 165, 3-(quinolin-3-yl)-2-(1H-tetrazol-5-yl)benzenesulfonamide]
IC50 (IMP-1; [4]): 214 nM | IC50 (VIM-1; [10]): 11.6 nM | Escherichia coli expressing NDM-1 (CLB 30016) MITC95 [1]: 0.5859 µM | Klebsiella pneumoniae expressing VIM-1 (IHMA 599644) MITC95 [2]: 37.5 µM | Serratia marcescens expressing IMP-1 (CL5741) MITC95 [3]: 9.375 µM | IC50 (NDM-1; [9]): 1.24 nM

NS(=O)(=O)c1c(CC[C@H]2CC[C@H](N)CC2)ccc(-c2ccc(C3CNC3)cc2)c1-c1nnn[nH]1 [Example 599, 4-(2-((1r,4s)-4-aminocyclohexyl)ethyl)-4′-(azetidin-3-yl)-2-(1H-tetrazol-5-yl)-[1,1′-biphenyl]-3-sulfonamide]
IC50 (IMP-1; [11]): 6.43 nM | IC50 (VIM-1; [12]): 5.33 nM | Escherichia coli MITC95 [1, 13]: 1.563 µM | Klebsiella pneumoniae MITC95 [2, 14]: 3.125 µM | Serratia marcescens MITC95 [3, 15]: 3.125 µM | IC50 (NDM-1; [16]): 2.12 nM

NCCN1CCC(c2ccc(-c3cccc(S(N)(=O)=O)c3-c3nnn[nH]3)cc2)CC1 [Example 616, 3-[4-[1-(2-aminoethyl)-4-piperidyl]phenyl]-2-(1H-tetrazol-5-yl)benzenesulfonamide]
IC50 (IMP-1; [11]): 14.4 nM | IC50 (VIM-1; [17]): 276 nM | Escherichia coli MITC95 [1, 13]: 0.3906 µM | Klebsiella pneumoniae MITC95 [2, 14]: 75 µM | Serratia marcescens MITC95 [3, 15]: 0.5859 µM | IC50 (NDM-1; [16]): 4.37 nM

NS(=O)(=O)c1nccc(N2CCCC(c3ccccn3)C2)c1-c1nnn[nH]1 (stereo not drawn) [Example 220, 4-(3-pyridin-2-ylpiperidin-1-yl)-3-(1H-tetrazol-5-yl)pyridine-2-sulfonamide]
IC50 (IMP-1; [4]): 2390 nM | IC50 (VIM-1; [10]): 234 nM | Escherichia coli expressing NDM-1 (CLB 30016) MITC95 [1]: 12.5 µM | Klebsiella pneumoniae expressing VIM-1 (IHMA 599644) MITC95 [2]: >200 µM | Serratia marcescens expressing IMP-1 (CL5741) MITC95 [3]: 75 µM | IC50 (NDM-1; [9]): 22.8 nM

NS(=O)(=O)c1c(CCC(F)(F)F)ccc(-c2ccc(C3CCNCC3)cc2)c1-c1nn[nH]n1 [Example 473, 4′-(piperidin-4-yl)-2-(2H-tetrazol-5-yl)-4-(3,3,3-trifluoropropyl)-[1,1′-biphenyl]-3-sulfonamide]
IC50 (IMP-1; [18]): 7.3 nM | IC50 (VIM-1; [19]): 1.42 nM | Escherichia coli MITC95 [1, 20]: 4.688 µM | Klebsiella pneumoniae MITC95 [2, 21]: 4.688 µM | Serratia marcescens MITC95 [3, 22]: 0.5859 µM | IC50 (NDM-1; [23]): 4.47 nM

Nc1nc2cccc(-c3ccc(CC4CCNCC4)c(S(N)(=O)=O)c3-c3nn[nH]n3)c2[nH]1 [Example 612, 3-(2-amino-3H-benzo[d]imidazol-4-yl)-6-(piperidin-4-ylmethyl)-2-(2H-tetrazol-5-yl)benzenesulfonamide]
IC50 (IMP-1; [11]): 65.5 nM | IC50 (VIM-1; [17]): 7.23 nM | Escherichia coli MITC95 [1, 13]: 0.5 µM | Klebsiella pneumoniae MITC95 [2, 14]: 1.281 µM | Serratia marcescens MITC95 [3, 15]: 2.563 µM | IC50 (NDM-1; [16]): 1.63 nM

NS(=O)(=O)c1cccc(-c2ccc(CN3CCC3C(=O)O)cc2)c1-c1nnn[nH]1 (stereo not drawn) [Example 378, 1-{[3′-sulfamoyl-2′-(1H-tetrazol-5-yl)biphenyl-4-yl]methyl}azetidine-2-carboxylic acid]
IC50 (IMP-1; [18]): 262 nM | IC50 (VIM-1; [19]): 407 nM | Escherichia coli MITC95 [1, 20]: 3.125 µM | Klebsiella pneumoniae MITC95 [2, 21]: 50 µM | Serratia marcescens MITC95 [3, 22]: 6.25 µM | IC50 (NDM-1; [23]): 24.6 nM

Nc1ccc2cc(-c3cccc(S(N)(=O)=O)c3-c3nnn[nH]3)ccc2n1 [Example 403, 3-(2-amino-6-quinolyl)-2-(1H-tetrazol-5-yl)benzenesulfonamide]
IC50 (IMP-1; [18]): 184 nM | IC50 (VIM-1; [19]): 15.4 nM | Escherichia coli MITC95 [1, 20]: 0.125 µM | Klebsiella pneumoniae MITC95 [2, 21]: 6.25 µM | Serratia marcescens MITC95 [3, 22]: 4.688 µM | IC50 (NDM-1; [23]): 2.34 nM

NS(=O)(=O)c1c(C(F)(F)F)ccc(-c2ccc(CO)cc2)c1-c1nn[nH]n1 [Example 445, 4′-(hydroxymethyl)-2-(2H-tetrazol-5-yl)-4-(trifluoromethyl)-[1,1′-biphenyl]-3-sulfonamide]
IC50 (IMP-1; [18]): 1.17 nM | IC50 (VIM-1; [19]): 1.34 nM | Escherichia coli MITC95 [1, 20]: 1.547 µM | Klebsiella pneumoniae MITC95 [2, 21]: 4.688 µM | Serratia marcescens MITC95 [3, 22]: 0.125 µM | IC50 (NDM-1; [23]): 1.28 nM

NS(=O)(=O)c1c(C(F)(F)F)ccc(-c2ccc(C(O)C3CCNCC3)cc2)c1-c1nnn[nH]1 (stereo not drawn) [Example 738, 4′-[hydroxy(piperidin-4-yl)methyl]-2-(1H-tetrazol-5-yl)-4-(trifluoromethyl)biphenyl-3-sulfonamide]
IC50 (IMP-1; [11]): 2.28 nM | IC50 (VIM-1; [12]): 3.41 nM | Escherichia coli MITC95 [1, 13]: 3.125 µM | Klebsiella pneumoniae MITC95 [2, 14]: 50 µM | Serratia marcescens MITC95 [3, 15]: 6.25 µM | IC50 (NDM-1; [16]): 1.28 nM

NS(=O)(=O)c1c(C(F)(F)F)ccc(-c2cccc3c2ccc[n+]3[O-])c1-c1nn[nH]n1 [Example 514, 5-(3-Sulfamoyl-2-(2H-tetrazol-5-yl)-4-(trifluoromethyl)phenyl)quinoline 1-oxide]
IC50 (IMP-1; [11]): 6.08 nM | IC50 (VIM-1; [17]): 0.138 nM | Escherichia coli MITC95 [1, 13]: 3.125 µM | Klebsiella pneumoniae MITC95 [2, 14]: 9.375 µM | Serratia marcescens MITC95 [3, 15]: 1.172 µM | IC50 (NDM-1; [16]): 1.15 nM

CC(C)(C)C(=O)NCC1CCN(c2ccc(C(F)(F)F)c(S(N)(=O)=O)c2-c2nnn[nH]2)CC1 [Example 760, 2,2-dimethyl-N-({1-[3-sulfamoyl-2-(1H-tetrazol-5-yl)-4-(trifluoromethyl)phenyl]piperidin-4-yl}methyl) propanamide]
IC50 (IMP-1; [4]): 2.08 nM | IC50 (VIM-1; [10]): 1.51 nM | Escherichia coli MITC95 [1, 6]: 100 µM | Klebsiella pneumoniae MITC95 [2, 7]: 100 µM | Serratia marcescens MITC95 [3, 8]: 25 µM | IC50 (NDM-1; [9]): 5.64 nM

Nc1ccc(CN[C@H]2CC[C@H](c3ccc(C(F)(F)F)c(S(N)(=O)=O)c3-c3nnn[nH]3)CC2)cn1 [Example 682, 3-(4-{[(6-aminopyridin-3-yl)methyl]amino}cyclohex-yl)-2-(1H-tetrazol-5-yl)-6-(trifluoromethyl)benzene sulfonamide]
IC50 (IMP-1): 27.4 nM | IC50 (VIM-1; [17]): 0.684 nM | Escherichia coli MITC95 [1, 13]: 6.25 µM | Klebsiella pneumoniae MITC95 [2, 14]: 12.5 µM | Serratia marcescens MITC95 [3, 15]: 6.25 µM | IC50 (NDM-1): 4.12 nM

NS(=O)(=O)c1cccc(-c2cccc3ccoc23)c1-c1nn[nH]n1 [Example 522, 3-(Benzofuran-7-yl)-2-(2H-tetrazol-5-yl)benzenesulfonamide]
IC50 (IMP-1; [11]): 263 nM | IC50 (VIM-1; [17]): 52.9 nM | Escherichia coli MITC95 [1, 13]: 2.344 µM | Klebsiella pneumoniae MITC95 [2, 14]: 50 µM | Serratia marcescens MITC95 [3, 15]: 18.75 µM | IC50 (NDM-1; [16]): 3.4 nM
